Assay results published in patent US20230128889A1, “REL/RELA/SPOT SMALL MOLECULES MODULATORS AND SCREENING METHODS” (priority 2020, published 2023).
Where two headings read alike, the source gives them in different places.

Columns and labels:
Assay type in all cases: binding, T. thermophilus
[1] = target: RelTt^NTD (Thermus thermophilus, UniProt Q5SHL3); assay: Isothermal Titration Calorimetry (ITC), titration into RelTt^NTD
Experimental: (§1) To directly address the sequential binding hypothesis, we monitored the binding of these nucleotides using Isothermal Titration Calorimetry (ITC). […] However, once the RelTt^NTD-GDP complex is formed, APCPP binds with an affinity of around 50 μM (FIG. 9h and Table 6). The incorporation of both GDP and APCPP is entropically driven (FIG. 11b and Table 6). In the case of the binding of GDP to the SYN-domain, the release of ordered water molecules from the GDP binding cleft is accompanied by the movement of α6-α7 that partially occludes the HD active center and an increase in the enzyme flexibility as observed in the crystal structure. All these structural changes are consistent with entropically driven binding events. […] In addition, it creates an ‘entropy reservoir’ that drives the binding of APCPP with the release of water molecules from the now exposed binding cleft. This supports the notion that GDP must ‘open’ the enzyme to reveal the ATP binding site, as predicted from the analysis of the crystallographic data.

[2] = target: RelTt^NTD-GDP complex (Thermus thermophilus, UniProt Q5SHL3); assay: ITC, titration into RelTt^NTD-GDP complex
Experimental: as §1

[3] = target: RelTt^NTD-APCPP complex (Thermus thermophilus, UniProt Q5SHL3); assay: ITC, titration into RelTt^NTD-APCPP complex
Experimental: as §1

Chain of RelTt^NTD (Q5SHL3 entry or part of it): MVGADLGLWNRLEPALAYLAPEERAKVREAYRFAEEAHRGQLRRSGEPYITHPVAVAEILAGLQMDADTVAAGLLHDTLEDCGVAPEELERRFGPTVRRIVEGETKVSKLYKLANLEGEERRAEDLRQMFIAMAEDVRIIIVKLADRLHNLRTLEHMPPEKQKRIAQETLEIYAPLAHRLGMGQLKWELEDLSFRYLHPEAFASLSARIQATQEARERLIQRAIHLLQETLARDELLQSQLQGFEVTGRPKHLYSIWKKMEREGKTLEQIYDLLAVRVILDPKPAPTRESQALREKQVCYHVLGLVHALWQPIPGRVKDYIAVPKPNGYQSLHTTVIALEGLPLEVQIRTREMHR
Chain of RelTt^NTD-APCPP complex (Q5SHL3 entry or part of it, one chain of several): as the sequence (Q5SHL3 entry or part of it) above
Chain of RelTt^NTD-GDP complex (Q5SHL3 entry or part of it, one chain of several): as the sequence (Q5SHL3 entry or part of it) above

Row | Compound | Kd [1] | Kd [2] [µM] | ΔG [2] [kcal/mol] | ΔH [2] [kcal/mol] | −TΔS [2] [kcal/mol] | Kd [3] [µM] | ΔG [3] [kcal/mol] | ΔH [3] [kcal/mol] | −TΔS [3] [kcal/mol] | ΔG [1] [kcal/mol] | ΔH [1] [kcal/mol] | −TΔS [1] [kcal/mol] | Kd ([1]; read-out: Kd) [µM]
1 | Nc1ncnc2c1ncn2[C@@H]1O[C@H](COP(=O)(O)CP(=O)(O)OP(=O)(O)O)[C@@H](O)[C@H]1O [APCPP] | does not bind | 50.4 | -5.67 ± 0.07 | 1.8 ± 1 | -7.5 ± 1 |  |  |  |  |  |  |  | 
2 | Nc1nc2c(ncn2[C@@H]2O[C@H](COP(=O)(O)OP(=O)(O)O)[C@@H](O)[C@H]2O)c(=O)[nH]1 [GDP] |  |  |  |  |  | 24.7 ± 0.9 | -6.1 ± 0.1 | 0.4 ± 1 | -6.5 ± 1 | -6.12 ± 0.01 | 1.3 ± 1 | -7.6 ± 1 | 23
